Five compounds from article PMC9465256, “Discovering monoacylglycerol lipase inhibitors by a combination of fluorogenic substrate assay and activity-based protein profiling” (Frontiers in Pharmacology, 2022) can be followed below.

A value given as a limit tells only on which side of the number the result lay.

The target of one assay is T1, human ABHD6 (Homo sapiens, UniProt Q9BV23).
T1 construct: expressed in transfected cells; host or cells: HEK293T (transient transfection; membrane fraction)
T1 sequence (Q9BV23 1-337): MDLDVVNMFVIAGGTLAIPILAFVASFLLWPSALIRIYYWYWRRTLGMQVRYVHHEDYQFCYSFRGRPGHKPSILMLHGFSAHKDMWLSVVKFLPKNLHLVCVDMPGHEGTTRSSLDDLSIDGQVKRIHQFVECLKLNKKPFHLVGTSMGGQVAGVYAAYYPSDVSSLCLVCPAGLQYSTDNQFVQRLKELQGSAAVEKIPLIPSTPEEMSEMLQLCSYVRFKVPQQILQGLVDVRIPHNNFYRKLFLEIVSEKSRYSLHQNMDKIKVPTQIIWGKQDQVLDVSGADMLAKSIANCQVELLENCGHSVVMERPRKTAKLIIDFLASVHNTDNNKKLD
Kind of assay: ABHD6 activity assay (AA-HNA fluorogenic substrate). It counts as biochemical. Summed up: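 Membranes from HEK293T cells transiently overexpressing human ABHD6 (50 μg/ml final) were preincubated 30 min with inhibitor in 40 mM HEPES pH 7.5, 0.1 mg/ml BSA, 5% DMSO. Hydrolysis of 200 µM AA-HNA was followed by fluorescence for 30 min, activity taken as the 5–15 min slope.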

For the next assay, the system named is HT-29 cells. In words: Cell viability assay (CCK-8), HT-29. It counts as cell-based, human. Particulars: HT-29, 48 h; for IC50: Homo sapiens, read-out: Antiproliferation activity (pIC50 ± SEM) HT-29 (converted). The protocol: (§1) Various cancer cell lines, including human colon cancer cell line HT-29, ovarian cell line OVCAR-3, melanoma cell line B16-F10, skin squamous cancer cells A431, cervical cancer cells Hela, lung cancer cell lines A549, H1975, and HCC827, were purchased from American type culture collection (ATCC). A431, H1975, B16-F10, OVCAR-3, HT-29, HCC827, Hela, and A549 cells were cultured in Dulbecco’s modified Eagle medium (DMEM, Gibco) containing 10% fetal bovine serum (FBS, Gibco), penicillin (100 U/ml) and streptomycin (100 μg/ml). All cell lines were maintained in a humidified 37°C incubator with 5% CO2. The medium was refreshed every 2–3 days and the cells were passaged at ∼90% confluence by adding the fresh medium, followed by vigorously pipetting the resuspend cells. Of note, the cells were only washed with PBS when a significant number of dead cells were observed.
(§2) The antiproliferation activity of the compounds against the cancer cell lines was evaluated using Cell Counting Kit-8. Briefly, cells (∼1,000 per well) in 100 µl of culture medium were plated in a 96-well plate for 24 h and 100 µl of medium with different concentrations of the tested compounds was added to each well for 48 h. Then 10 μl of CCK8 solution (#CK04, Dojindo) was added and incubated at 37°C for 2 h. The absorbance of each well was measured with a plate reader (BioTeck) at 450 nm. Cell viability was calculated as follows: cell viability (%) = [(As-Ab)/(Ac-Ab)] × 100. Among them, As represents the absorbance of experimental wells, Ab represents the absorbance of blank wells and Ac represents the absorbance of control wells. The experiments were repeated at least three times and IC50 values were determined by plotting a log(inhibitor) v. s normalized response (Variable slope) dose–response curve generated using GraphPad Prism software.

In the next assay the test system is HCC827 cells. In words: Cell viability assay (CCK-8), HCC827. To be noted: HCC827, 48 h; for IC50: Homo sapiens, read-out: Antiproliferation activity (pIC50 ± SEM) HCC827 (converted). It counts as cell-based. The protocol:
as §1, §2

Setting [1] is: 100 µM, AA-HNA substrate assay, Supplementary Table 2, read-out: ABHD6 Inhibition (%).

`COc1ccc2cc3[n+](cc2c1OC)CCc1cc2c(cc1-3)OCO2` [compound 17, Berberine chloride]: the activity at 100 µM at human ABHD6 (setting [1]) came out at 112%. Besides, the IC50 in the assay on HT-29 cells and in the assay with HCC827 cells was above 10 µM in each case.
Take `O=c1cc(-c2ccc(O)cc2)oc2cc(O)cc(O)c12` [compound 9, Apigenin]: the activity at 100 µM on human ABHD6 (setting [1]) is 88.9%. The IC50 in the assay with HT-29 cells and in the assay on HCC827 cells was above 10 µM in each case.
Regarding `Cl.N=c1ccn2c(n1)O[C@H]1[C@H](O)[C@@H](CO)O[C@H]12` [compound 1, Cyclocytidine HCl], the activity on human ABHD6 (setting [1]) came out at 89.8%. Besides, the “Antiproliferation activity (pIC50 ± SEM) HT-29” value with HT-29 cells is reported as below 5. Moreover, the “Antiproliferation activity (pIC50 ± SEM) HCC827” value in the assay on HCC827 cells was determined as 5.1 ± 0.2.
For the compound `COc1ccc(C(C)=O)c(O)c1` [compound 64, Paeonol], the activity at 100 µM at human ABHD6 (setting [1]) is 96.2%. For the same compound, the IC50 in the assay on HT-29 cells and with HCC827 cells was above 10 µM in each case.
Usually inhibition stands for the percentage by which the read-out fell short of the control. `C[C@H]1COC2=C1C(=O)C(=O)c1c2ccc2c1CCCC2(C)C` [compound 23, Cryptotanshinone]: at human ABHD6 (setting [1]), the activity at 100 µM amounted to 62.5%. In addition, the inhibition at 100 µM on human ABHD6 (recombinant human ABHD6, 100 µM compound) is below 50%. Moreover, the “ABHD6 inhibition (%)” value on human ABHD6 (recombinant human ABHD6, 100 µM compound, 100 µM) is reported as 37%. In addition, the IC50 in the assay with HT-29 cells was 10 µM; in the assay on HCC827 cells it was 6.31 µM.
